# According to ChEMBL document CHEMBL1908105, “UDP-glucuronosyltransferases and clinical drug-drug interactions” (Pharmacol Ther, 2005):
# Values joined by “and” are separate entries in the source; they are usually repeats but may differ in a detail not shown here. Equal entries are not always repeated.
# T1: UDP-glucuronosyltransferase 1A4 (Homo sapiens, UniProt P22310)
# T1 sequence (P22310 whole entry): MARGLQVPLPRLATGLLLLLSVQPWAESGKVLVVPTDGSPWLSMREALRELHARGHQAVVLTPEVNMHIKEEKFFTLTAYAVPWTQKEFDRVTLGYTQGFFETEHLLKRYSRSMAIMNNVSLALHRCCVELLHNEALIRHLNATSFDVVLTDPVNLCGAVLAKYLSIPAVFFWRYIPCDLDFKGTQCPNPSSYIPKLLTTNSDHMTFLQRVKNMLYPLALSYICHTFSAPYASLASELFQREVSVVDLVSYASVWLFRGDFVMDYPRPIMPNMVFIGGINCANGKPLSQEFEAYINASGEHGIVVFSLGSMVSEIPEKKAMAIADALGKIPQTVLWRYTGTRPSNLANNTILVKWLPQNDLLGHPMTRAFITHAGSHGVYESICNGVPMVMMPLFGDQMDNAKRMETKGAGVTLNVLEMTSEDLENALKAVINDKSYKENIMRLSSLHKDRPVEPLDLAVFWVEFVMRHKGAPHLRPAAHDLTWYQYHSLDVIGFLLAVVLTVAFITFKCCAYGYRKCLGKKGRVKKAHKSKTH
# T2: UDP-glucuronosyltransferase 1A3 (Homo sapiens, UniProt P35503)
# T2 sequence (P35503 whole entry): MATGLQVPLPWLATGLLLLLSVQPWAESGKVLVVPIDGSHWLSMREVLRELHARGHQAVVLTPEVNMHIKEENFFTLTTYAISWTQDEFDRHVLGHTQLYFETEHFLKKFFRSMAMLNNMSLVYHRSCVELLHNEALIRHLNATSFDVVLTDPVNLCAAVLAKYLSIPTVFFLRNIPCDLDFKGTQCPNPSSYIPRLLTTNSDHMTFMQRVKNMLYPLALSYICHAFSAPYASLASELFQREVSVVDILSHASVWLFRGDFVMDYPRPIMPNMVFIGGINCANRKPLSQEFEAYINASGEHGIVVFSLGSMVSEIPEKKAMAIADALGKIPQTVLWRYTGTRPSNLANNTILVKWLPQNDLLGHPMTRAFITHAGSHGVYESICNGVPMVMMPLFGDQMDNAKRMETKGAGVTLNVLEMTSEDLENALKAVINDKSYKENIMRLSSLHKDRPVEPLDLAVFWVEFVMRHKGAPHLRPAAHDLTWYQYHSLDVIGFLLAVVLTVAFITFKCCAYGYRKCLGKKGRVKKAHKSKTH
# T3: UDP-glucuronosyltransferase 2B7 (Homo sapiens, UniProt P16662)
# T3 sequence (P16662 whole entry): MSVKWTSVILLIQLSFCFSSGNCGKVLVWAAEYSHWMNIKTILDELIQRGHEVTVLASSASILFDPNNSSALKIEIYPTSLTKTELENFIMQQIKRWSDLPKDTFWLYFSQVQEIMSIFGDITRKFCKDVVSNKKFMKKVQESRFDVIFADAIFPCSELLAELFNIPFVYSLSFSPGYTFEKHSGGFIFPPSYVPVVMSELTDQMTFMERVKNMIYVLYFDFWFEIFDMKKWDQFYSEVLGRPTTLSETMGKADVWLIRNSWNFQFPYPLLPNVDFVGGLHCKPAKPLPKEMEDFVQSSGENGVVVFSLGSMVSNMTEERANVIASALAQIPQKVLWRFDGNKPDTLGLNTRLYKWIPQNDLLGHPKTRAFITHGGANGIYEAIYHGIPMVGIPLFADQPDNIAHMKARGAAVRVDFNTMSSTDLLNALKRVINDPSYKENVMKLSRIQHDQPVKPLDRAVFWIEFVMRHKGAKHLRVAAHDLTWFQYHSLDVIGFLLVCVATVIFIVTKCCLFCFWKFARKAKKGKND
# T4: UGT2B7 (Homo sapiens, UniProt P16662)
# T4 sequence (P16662 whole entry): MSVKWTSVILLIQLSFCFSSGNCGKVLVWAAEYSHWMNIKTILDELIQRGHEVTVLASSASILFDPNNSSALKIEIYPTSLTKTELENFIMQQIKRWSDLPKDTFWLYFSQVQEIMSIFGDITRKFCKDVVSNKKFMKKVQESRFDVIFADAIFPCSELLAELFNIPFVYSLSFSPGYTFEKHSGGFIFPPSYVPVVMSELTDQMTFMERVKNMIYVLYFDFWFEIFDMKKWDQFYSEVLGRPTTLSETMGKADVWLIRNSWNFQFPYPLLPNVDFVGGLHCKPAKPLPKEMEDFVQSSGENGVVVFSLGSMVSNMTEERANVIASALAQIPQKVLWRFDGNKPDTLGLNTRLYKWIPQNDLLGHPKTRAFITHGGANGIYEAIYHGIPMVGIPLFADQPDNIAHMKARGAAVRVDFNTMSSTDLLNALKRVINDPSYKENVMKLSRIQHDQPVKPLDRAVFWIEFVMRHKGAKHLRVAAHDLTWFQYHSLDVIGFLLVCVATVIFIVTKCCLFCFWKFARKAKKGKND
# B1: UDP-glucuronosyltransferase 1A7 (Homo sapiens) (protein)
# chain: MARAGWTGLLPLYVCLLLTCGFAKAGKLLVVPMDGSHWFTMQSVVEKLILRGHEVVVVMPEVSWQLGRSLNCTVKTYSTSYTLEDQDREFMVFADARWTAPLRSAFSLLTSSSNGIFDLFFSNCRSLFNDRKLVEYLKESCFDAVFLDPFDACGLIVAKYFSLPSVVFARGIFCHYLEEGAQCPAPLSYVPRLLLGFSDAMTFKERVWNHIMHLEEHLFCPYFFKNVLEIASEILQTPVTAYDLYSHTSIWLLRTDFVLEYPKPVMPNMIFIGGINCHQGKPVPMEFEAYINASGEHGIVVFSLGSMVSEIPEKKAMAIADALGKIPQTVLWRYTGTRPSNLANNTILVKWLPQNDLLGHPMTRAFITHAGSHGVYESICNGVPMVMMPLFGDQMDNAKRMETKGAGVTLNVLEMTSEDLENALKAVINDKSYKENIMRLSSLHKDRPVEPLDLAVFWVEFVMRHKGAPHLRPAAHDLTWYQYHSLDVIGFLLAVVLTVAFITFKCCAYGYRKCLGKKGRVKKAHKSKTH
# B2: UDP-glucuronosyltransferase 1A6 (Homo sapiens) (protein)
# chain: MACLLRSFQRISAGVFFLALWGMVVGDKLLVVPQDGSHWLSMKDIVEVLSDRGHEIVVVVPEVNLLLKESKYYTRKIYPVPYDQEELKNRYQSFGNNHFAERSFLTAPQTEYRNNMIVIGLYFINCQSLLQDRDTLNFFKESKFDALFTDPALPCGVILAEYLGLPSVYLFRGFPCSLEHTFSRSPDPVSYIPRCYTKFSDHMTFSQRVANFLVNLLEPYLFYCLFSKYEELASAVLKRDVDIITLYQKVSVWLLRYDFVLEYPRPVMPNMVFIGGINCKKRKDLSQEFEAYINASGEHGIVVFSLGSMVSEIPEKKAMAIADALGKIPQTVLWRYTGTRPSNLANNTILVKWLPQNDLLGHPMTRAFITHAGSHGVYESICNGVPMVMMPLFGDQMDNAKRMETKGAGVTLNVLEMTSEDLENALKAVINDKSYKENIMRLSSLHKDRPVEPLDLAVFWVEFVMRHKGAPHLRPAAHDLTWYQYHSLDVIGFLLAVVLTVAFITFKCCAYGYRKCLGKKGRVKKAHKSKTH
# Columns and labels:
# [1] = Inhibition of morphine glucuronidation by human UGT enzymes from liver microsomes; design: species or system Microsome
# [2] = Inhibition of 4-methylumbelliferone glucuronidation by human UGT enzymes from liver microsomes; design: species or system Microsome
# [3] = Inhibition of AZT glucuronidation by human UGT enzymes from liver microsomes; design: species or system Microsome
# [4] = molecular target: T1, UDP-glucuronosyltransferase 1A4; assay: Drug glucuronidation reaction catalyzed by human recombinant UGT1A4
# [5] = Inhibition of morphine (3-O-glucuronidation) glucuronidation by human UGT enzymes from liver microsomes; design: species or system Microsome
# [6] = Inhibition of morphine (6-O-glucuronidation) glucuronidation by human UGT enzymes from liver microsomes; design: species or system Microsome
# [7] = Inhibition of codeine glucuronidation by human UGT enzymes from liver microsomes; design: species or system Microsome
# [8] = Inhibition of mycophenolic acid (0.5 mM) glucuronidation by human kidney microsomes; design: species or system Microsome
# [9] = Inhibition of mycophenolic acid (1 mM) glucuronidation by human UGT enzymes from liver microsomes; design: species or system Microsome
# [10] = Inhibition of ciramadol glucuronidation by human UGT enzymes from liver microsomes; design: species or system Microsome
# [11] = molecular target: T2, UDP-glucuronosyltransferase 1A3; assay: Drug glucuronidation reaction catalyzed by human recombinant UGT1A3
# [12] = molecular target: T3, UDP-glucuronosyltransferase 2B7; assay: (§1) Drug glucuronidation reaction catalyzed by human recombinant UGT2B7
# UGT2B7 = molecular target: T4, UGT2B7; assay: as §1; conditions: recombinant UGT2B7
# [13] = substrate: CCc1c2c(nc3ccc(O)cc13)-c1cc3c(c(=O)n1C2)COC(=O)[C@]3(O)CC; assay: (§2) Drug glucuronidation reaction catalyzed by human recombinant UGT1A7
# [14] = substrate: COc1c(C)c2c(c(O)c1C/C=C(\C)CCC(=O)O)C(=O)OC2; assay: as §2
# [15] = substrate: CCc1c2c(nc3ccc(O)cc13)-c1cc3c(c(=O)n1C2)COC(=O)[C@]3(O)CC; assay: (§3) Drug glucuronidation reaction catalyzed by human recombinant UGT1A6
# [16] = substrate: CN1CC[C@]23c4c5ccc(O[C@@H]6O[C@H](C(=O)O)[C@@H](O)[C@H](O)[C@H]6O)c4O[C@H]2[C@@H](O)C=C[C@H]3[C@H]1C5; assay: as §3
molecule,measurement,setting,value
C=CCN1CC[C@]23c4c5ccc(O)c4O[C@H]2C(=O)CC[C@@]3(O)[C@H]1C5 [NALOXONE],Ki,[1],630 µM
CC(C(=O)O)c1cccc(Oc2ccccc2)c1 (configuration not stated) [FENOPROFEN],Ki,[2],220 µM
COc1ccc2c(c1)c(CC(=O)O)c(C)n2C(=O)c1ccc(Cl)cc1 [INDOMETHACIN],Ki,[3],200 µM
CN(C)CCCN1c2ccccc2CCc2ccccc21 [IMIPRAMINE],Km,[4],310 µM
same,Vmax,[4],180 pmol/min/mg protein
O=C1C(CC[S+]([O-])c2ccccc2)C(=O)N(c2ccccc2)N1c1ccccc1 (configuration not stated) [SULFINPYRAZONE],Ki,[3],2100 µM
CNCCC=C1c2ccccc2CCc2ccccc21 [NORTRIPTYLINE],Ki,[5],33 µM
same,Ki,[6],27 µM
CCCCC1C(=O)N(c2ccccc2)N(c2ccccc2)C1=O [PHENYLBUTAZONE],Ki,[3],1400 µM
same,Ki,[7],1700 µM
Cc1cccc(Nc2ccccc2C(=O)O)c1C [MEFENAMIC ACID],IC50,[8],49 µM
same,IC50,[9],63 µM
C#C[C@]1(O)CC[C@H]2[C@@H]3CCc4cc(O)ccc4[C@H]3CC[C@@]21C [ETHINYL ESTRADIOL],Ki,[3],38 µM and 150 µM
C[C@]12CC[C@H]3[C@@H](CCC4=CC(=O)CC[C@@]43C)[C@@H]1CC[C@@H]2O [TESTOSTERONE],Ki,[3],250 µM
CCOC(=O)Nc1ccc(NCc2ccc(F)cc2)cc1N [EZOGABINE],Km,[4],322 µM
O=C(O)c1cc(-c2ccc(F)cc2F)ccc1O [DIFLUNISAL],IC50,[8],122 µM
same,IC50,[9],109 µM
CN/C(=N\CCSCc1nc[nH]c1C)NC#N [CIMETIDINE],Ki,[3],11000 µM
O=C(O)c1cccnc1Nc1cccc(C(F)(F)F)c1 [NIFLUMIC ACID],IC50,[8],8 µM
same,IC50,[9],8 µM
O=C(N[C@H](CO)[C@H](O)c1ccc([N+](=O)[O-])cc1)C(Cl)Cl [CHLORAMPHENICOL],Ki,[3],250 µM
same,Ki,[7],270 µM
same,Ki,[1],980 µM
Cc1noc(NS(=O)(=O)c2ccc(N)cc2)c1C [SULFISOXAZOLE],Ki,[3],47000 µM
O=C(O)c1ccccc1Nc1cccc(C(F)(F)F)c1 [FLUFENAMIC ACID],IC50,[8],13 µM
same,IC50,[9],19 µM
CN1C(=O)C(O)N=C(c2ccccc2)c2cc(Cl)ccc21 (configuration not stated) [TEMAZEPAM],Ki,[2],217 µM
same,Ki,[3],580 µM
CN1C(=O)CN=C(c2ccccc2)c2cc(Cl)ccc21 [DIAZEPAM],Ki,[3],300 µM
same,Ki,[10],40 µM
same,Ki,[7],180 µM
same,Ki,[1],120 µM
Nc1ccc(S(=O)(=O)Nc2nccs2)cc1 [SULFATHIAZOLE],Ki,[3],24000 µM
CN1CCC(=C2c3ccccc3CC(=O)c3sccc32)CC1 [KETOTIFEN],Vmax,[11],6 pmol/min/mg protein and 12 pmol/min/mg protein
same,Vmax,[4],130 pmol/min/mg protein and 140 pmol/min/mg protein
CN(C)CCC=C1c2ccccc2CCc2ccccc21 [AMITRIPTYLINE],Ki,[7],130 µM
same,Ki,[5],160 µM
same,Ki,[6],80 µM
Nc1ccc(S(=O)(=O)c2ccc(N)cc2)cc1 [DAPSONE],Ki,[3],1700 µM
CN(C)CCCN1c2ccccc2CCc2ccc(Cl)cc21 [CLOMIPRAMINE],Ki,[5],90 µM
same,Ki,[6],56 µM
CN1C(=O)CN=C(c2ccccc2F)c2cc([N+](=O)[O-])ccc21 [FLUNITRAZEPAM],Ki,[3],190 µM
O=C1Nc2ccc(Cl)cc2C(c2ccccc2Cl)=NC1O (configuration not stated) [LORAZEPAM],Ki,[3],160 µM
same,Ki,[10],140 µM
same,Ki,[1],160 µM
Cc1cn([C@H]2C[C@H](N=[N+]=[N-])[C@@H](CO)O2)c(=O)[nH]c1=O [ZIDOVUDINE],Vmax,[12],210 pmol/min/mg protein
same,Km,UGT2B7,770 µM
COc1ccc2cc([C@H](C)C(=O)O)ccc2c1 [NAPROXEN],Ki,[3],172 µM and 1100 µM
Cc1cc(CC(=O)O)n(C)c1C(=O)c1ccc(Cl)cc1 [ZOMEPIRAC],Ki,[3],2100 µM
B1,Km,[13],5 µM
same,Vmax,[13],< 1e-06 µmol/min/mg
same,Km,[14],30 µM
same,Vmax,[14],0.00037 µmol/min/mg
B2,Km,[15],97 µM
same,Vmax,[15],2.8e-05 µmol/min/mg
same,Km,[16],18000 µM
same,Vmax,[16],2.1e-05 µmol/min/mg
